In brackets after ≈: the same amount, converted by molar mass.
How the values were obtained:
[1] = test system: resistant A. baumannii MXX2240 (MDR clinical isolate); experiment: Antibacterial activity, MIC, resistant A. baumannii MXX2240; assay type: cell-based, Acinetobacter baumannii; conditions: Acinetobacter baumannii, resistant A. baumannii MMX2240, MDR clinical isolate; read-out: MIC MMX2240
[2] = test system: Acinetobacter baumannii (A. baumannii) BAA747; experiment: Antibacterial activity, MIC, A. baumannii BAA747; assay type: cell-based; conditions: Acinetobacter baumannii; A. baumannii BAA747; read-out: MIC BAA747
[3] = test system: control Gram-negative E. coli 25922 strain; experiment: Antibacterial activity, microbroth dilution MIC, E. coli 25922; assay type: cell-based, Escherichia coli; conditions: Escherichia coli; E. coli 25922, microbroth dilution; read-out: MIC, 25922
[4] = test system: super sensitive Gram-negative Escherichia coli (E. coli) BAS849; experiment: Antibacterial activity, microbroth dilution MIC, E. coli BAS849; assay type: cell-based; conditions: Escherichia coli; E. coli BAS849, microbroth dilution; read-out: MIC, BAS849
[5] = test system: Gram-positive Staphylococcus aureus (S. aureus) 29213; experiment: Antibacterial activity, microbroth dilution MIC, S. aureus 29213; assay type: cell-based; conditions: Staphylococcus aureus; S. aureus 29213, microbroth dilution; read-out: MIC, 29213
[6] = test system: resistant K. pneumoniae MXX1232 (MDR clinical isolate); experiment: Antibacterial activity, MIC, resistant K. pneumoniae MXX1232; assay type: cell-based, Klebsiella pneumoniae; conditions: Klebsiella pneumoniae; resistant K. pneumoniae MMX1232, MDR clinical isolate; read-out: MIC MMX1232
[7] = test system: Pseudomonas aeruginosa (P. aeruginosa) 27853; experiment: Antibacterial activity, MIC, P. aeruginosa 27853; assay type: cell-based; conditions: Pseudomonas aeruginosa, P. aeruginosa 27853; read-out: MIC 27853
From the text: (§1) The antibacterial activity from a microbroth dilution method may be presented as the minimum inhibitory concentration (MIC in […]). The MIC value is the lowest concentration of a drug which prevents macroscopically visible bacterial growth under test conditions.
Antibacterial activity of test compounds against the Gram-negative bacterium Pseudomonas aeruginosa (P. aeruginosa) 27853 is shown in Table 5.

[8] = test system: Klebsiella pneumoniae (K. pneumoniae) 35657; experiment: Antibacterial activity, MIC, K. pneumoniae 35657; assay type: cell-based; conditions: Klebsiella pneumoniae
[9] = test system: quinolone resistant E. coli LZ3111; experiment: Antibacterial activity, MIC, quinolone resistant E. coli LZ3111; assay type: cell-based, Escherichia coli; conditions: Escherichia coli, read-out: MIC, LZ3111
From the text: as §1
Mutations in these regions are known to confer a high level resistance to the quinolone class of antibiotics.

SMILES | MIC [1] [µg/mL] | MIC [2] [µg/mL] | MIC [3] [µg/mL] | MIC [4] [µg/mL] | MIC [5] [µg/mL] | MIC [6] [µg/mL] | MIC [7] [µg/mL] | MIC [8] [µg/mL] | MIC [9] [µg/mL]
CCc1c(-c2cnc(N(C)C)nc2)[nH]c(=O)c(C(=O)O)c1O [Cpd 20, 6-[2-(dimethylamino)pyrimidin-5-yl]-5-ethyl-4-hydroxy-2-oxo-1,2-dihydropyridine-3-carboxylic acid] | 3.5 to 12.5 (≈ 11.5 to 41.1 µM) | 12.5 to 150 (≈ 41.1 to 493 µM) | 12.5 to 150 (≈ 41.1 to 493 µM) | 12.5 to 150 (≈ 41.1 to 493 µM) | 12.5 to 150 (≈ 41.1 to 493 µM) | 12.5 to 150 (≈ 41.1 to 493 µM) | 12.5 to 150 (≈ 41.1 to 493 µM) | 12.5 to 150 (≈ 41.1 to 493 µM) | 3.5 to 12.5 (≈ 11.5 to 41.1 µM)
CCc1cc(C(=O)O)c(=O)[nH]c1-c1ccc(N2CCC(NC3CC3)C2)cc1 (stereo not drawn) [Cpd 173, 6-{4-[3-(cyclopropylamino)pyrrolidin-1-yl]phenyl}-5-ethyl-2-oxo-1,2-dihydropyridine-3-carboxylic acid] | 12.5 to 150 (≈ 34 to 408 µM) | 3.5 to 12.5 (≈ 9.53 to 34 µM) | 1 to 3.5 (≈ 2.72 to 9.53 µM) | < 1 | 12.5 to 150 (≈ 34 to 408 µM) | 12.5 to 150 (≈ 34 to 408 µM) | 12.5 to 150 (≈ 34 to 408 µM) | 1 to 3.5 (≈ 2.72 to 9.53 µM) | 12.5 to 150 (≈ 34 to 408 µM)
CCc1cc(C(=O)O)c(=O)[nH]c1-c1ccc(N2CCC(c3ccncc3)C2)cc1 (stereo not drawn) [Cpd 226, 5-ethyl-2-oxo-6-{4-[3-(pyridin-4-yl)pyrrolidin-1-yl]phenyl}-1,2-dihydropyridine-3-carboxylic acid] | 12.5 to 150 (≈ 32.1 to 385 µM) | 1 to 3.5 (≈ 2.57 to 8.99 µM) | 1 to 3.5 (≈ 2.57 to 8.99 µM) | < 1 | 3.5 to 12.5 (≈ 8.99 to 32.1 µM) | 12.5 to 150 (≈ 32.1 to 385 µM) | 12.5 to 150 (≈ 32.1 to 385 µM) | 3.5 to 12.5 (≈ 8.99 to 32.1 µM) | 12.5 to 150 (≈ 32.1 to 385 µM)
CCc1cc(C(=O)O)c(=O)[nH]c1-c1ccc(N2CCC(c3ccccn3)C2)cc1 (stereo not drawn) [Cpd 227, 5-ethyl-2-oxo-6-{4-[3-(pyridin-2-yl)pyrrolidin-1-yl]phenyl}-1,2-dihydropyridine-3-carboxylic acid] | 12.5 to 150 (≈ 32.1 to 385 µM) | 1 to 3.5 (≈ 2.57 to 8.99 µM) | 1 to 3.5 (≈ 2.57 to 8.99 µM) | < 1 | 1 to 3.5 (≈ 2.57 to 8.99 µM) | 12.5 to 150 (≈ 32.1 to 385 µM) | 3.5 to 12.5 (≈ 8.99 to 32.1 µM) | 3.5 to 12.5 (≈ 8.99 to 32.1 µM) | 12.5 to 150 (≈ 32.1 to 385 µM)
CCc1cc(C(=O)O)c(=O)[nH]c1-c1ccc(N2CCC(O)(CC)C2)cc1 (stereo not drawn) [Cpd 232, 5-ethyl-6-[4-(3-ethyl-3-hydroxypyrrolidin-1-yl)phenyl]-2-oxo-1,2-dihydropyridine-3-carboxylic acid] | 12.5 to 150 (≈ 35.1 to 421 µM) | 1 to 3.5 (≈ 2.81 to 9.82 µM) | 1 to 3.5 (≈ 2.81 to 9.82 µM) | < 1 | 3.5 to 12.5 (≈ 9.82 to 35.1 µM) | 12.5 to 150 (≈ 35.1 to 421 µM) | 12.5 to 150 (≈ 35.1 to 421 µM) | 1 to 3.5 (≈ 2.81 to 9.82 µM) | 12.5 to 150 (≈ 35.1 to 421 µM)
CCc1c(-c2ccc(N3CCC(c4ccccn4)C3)cc2)[nH]c(=O)c(C(=O)O)c1O (stereo not drawn) [Cpd 286, 5-ethyl-4-hydroxy-2-oxo-6-{4-[3-(pyridin-2-yl)pyrrolidin-1-yl]phenyl}-1,2-dihydropyridine-3-carboxylic acid] | 12.5 to 150 (≈ 30.8 to 370 µM) | 3.5 to 12.5 (≈ 8.63 to 30.8 µM) | 1 to 3.5 (≈ 2.47 to 8.63 µM) | < 1 | 1 to 3.5 (≈ 2.47 to 8.63 µM) | 12.5 to 150 (≈ 30.8 to 370 µM) | 12.5 to 150 (≈ 30.8 to 370 µM) | 12.5 to 150 (≈ 30.8 to 370 µM) | 12.5 to 150 (≈ 30.8 to 370 µM)
CCc1c(-c2ccc(N3CCC(O)(CC)C3)cc2)[nH]c(=O)c(C(=O)O)c1O (stereo not drawn) [Cpd 288, 5-ethyl-6-[4-(3-ethyl-3-hydroxypyrrolidin-1-yl)phenyl]-4-hydroxy-2-oxo-1,2-dihydropyridine-3-carboxylic acid] | 1 to 3.5 (≈ 2.69 to 9.4 µM) | 1 to 3.5 (≈ 2.69 to 9.4 µM) | 1 to 3.5 (≈ 2.69 to 9.4 µM) | < 1 | 1 to 3.5 (≈ 2.69 to 9.4 µM) | 12.5 to 150 (≈ 33.6 to 403 µM) | 3.5 to 12.5 (≈ 9.4 to 33.6 µM) | 3.5 to 12.5 (≈ 9.4 to 33.6 µM) | 3.5 to 12.5 (≈ 9.4 to 33.6 µM)
CCc1c(-c2cnc(N(C)C)cn2)[nH]c(=O)c(C(=O)O)c1O [Cpd 312, 6-(5-(dimethylamino)pyrazin-2-yl)-5-ethyl-4-hydroxy-2-oxo-1,2-dihydropyridine-3-carboxylic acid] | 12.5 to 150 (≈ 41.1 to 493 µM) | 3.5 to 12.5 (≈ 11.5 to 41.1 µM) | 12.5 to 150 (≈ 41.1 to 493 µM) | < 1 | 12.5 to 150 (≈ 41.1 to 493 µM) | 12.5 to 150 (≈ 41.1 to 493 µM) | 12.5 to 150 (≈ 41.1 to 493 µM) | 3.5 to 12.5 (≈ 11.5 to 41.1 µM) | 12.5 to 150 (≈ 41.1 to 493 µM)
CCc1c(-c2cnc(N3CCCC3)cn2)[nH]c(=O)c(C(=O)O)c1O [Cpd 313, 5-ethyl-4-hydroxy-2-oxo-6-(5-(pyrrolidin-1-yl)pyrazin-2-yl)-1,2-dihydropyridine-3-carboxylic acid] | 12.5 to 150 (≈ 37.8 to 454 µM) | 3.5 to 12.5 (≈ 10.6 to 37.8 µM) | 12.5 to 150 (≈ 37.8 to 454 µM) | < 1 | 12.5 to 150 (≈ 37.8 to 454 µM) | 12.5 to 150 (≈ 37.8 to 454 µM) | 12.5 to 150 (≈ 37.8 to 454 µM) | 3.5 to 12.5 (≈ 10.6 to 37.8 µM) | 12.5 to 150 (≈ 37.8 to 454 µM)

From patent publication US9650395B2, “Antibacterial compounds and methods for use” (PTC Therapeutics, Inc., priority 2011, dated 2017)
